# What was measured:
# Rattus norvegicus [1] = assay: Neuroprotective activity in streptozotocin-induced Rattus norvegicus Wistar albino (rat) diabetic model assessed as increase in brain total nitric oxide level measured per gram of tissue at 20 mg/kg, administered as intragastrically after 21 days by Griess assay (reference value: 100.6 +/- 10.7 umol); type: functional; conditions: route intragastric
# Rattus norvegicus [2] = assay: (§1) Neuroprotective activity in streptozotocin-induced Rattus norvegicus Wistar albino (rat) diabetic model assessed as increase in brain glutathione level measured per gram of tissue at 20 mg/kg, administered as intragastrically after 21 days by Ellman's method (reference value: 3 +/- 0.5 umol); type: functional; conditions: route intragastric
# Rattus norvegicus [3] = assay: Neuroprotective activity in streptozotocin-induced Rattus norvegicus Wistar albino (rat) diabetic model assessed as decrease in brain malondialdehyde level measured per gram of tissue at 20 mg/kg, administered as intragastrically after 21 days by TBARS assay (reference value: 447 +/- 61.9 nmol); type: functional; conditions: route intragastric
# Rattus norvegicus [4] = assay: Neurotoxicity in Rattus norvegicus Wistar albino (rat) assessed as increase in brain glutathione level measured per gram of tissue at 20 mg/kg, administered as intragastrically after 21 days by Ellman's method (reference value: 3.5 +/- 1.0 umol); type: toxicity, organism-based; set-up: dose 20 mg/kg, route intragastric; conditions: in vivo, po, 504 h
# Rattus norvegicus [5] = assay: Neurotoxicity in Rattus norvegicus Wistar albino (rat) assessed as increase in brain malondialdehyde level measured per gram of tissue at 20 mg/kg, administered as intragastrically after 21 days by TBARS assay (reference value: 233.9 +/- 48.6 nmol); type: toxicity, organism-based; set-up: dose 20 mg/kg, route intragastric; conditions: in vivo, po, 504 h
# Rattus norvegicus [6] = assay: as §1, with “ascorbic acid” for “glutathione”, “spectrphotometric analysis” for “Ellman's method”, “3.7” for “3”, “0.4 mg)” for “0.5 umol)”; type: functional; conditions: route intragastric
# Rattus norvegicus [7] = assay: Neurotoxicity in Rattus norvegicus Wistar albino (rat) assessed as increase in brain ascorbic acid level measured per gram of tissue at 20 mg/kg, administered as intragastrically after 21 days by spectrphotometric analysis (reference value: 3.7 +/- 0.7 mg); type: toxicity, organism-based; set-up: dose 20 mg/kg, route intragastric; conditions: in vivo, po, 504 h
# Rattus norvegicus [8] = assay: Neurotoxicity in Rattus norvegicus Wistar albino (rat) assessed as increase in brain total nitric oxide level measured per gram of tissue at 20 mg/kg, administered as intragastrically after 21 days by Griess assay (reference value: 144.8 +/- 16.3 umol); type: toxicity, organism-based; set-up: dose 20 mg/kg, route intragastric; conditions: in vivo, po, 504 h
compound,measurement,setting,value
O=C1O[C@H]([C@@H](O)CO)C(O)=C1O [ASCORBIC ACID],Activity,Rattus norvegicus [1],146.1 µmol
same,Activity,Rattus norvegicus [2],3.1 µmol
same,Activity,Rattus norvegicus [3],204.2 nmol
same,Activity,Rattus norvegicus [4],5.4 µmol
same,Activity,Rattus norvegicus [5],249.2 nmol
same,Activity,Rattus norvegicus [6],4.26 mg
same,Activity,Rattus norvegicus [7],5.2 mg
same,Activity,Rattus norvegicus [8],115.2 µmol

# Reference: ChEMBL document CHEMBL3045177, “The effect of ascorbic acid supplementation on brain oxidative events in experimental diabetes” (Med Chem Res, 2010)
